Eight compounds from patent publication US20240067633A1, “KETOHEXOKINASE INHIBITOR AND USE THEREOF” (SICHUAN HAISCO PHARMACEUTICAL CO., LTD., priority 2020, published 2024) can be followed below.

The target in one data set is CYP3A4 (Homo sapiens (Human), UniProt P08684). The data set is described as follows: CYP450 enzyme inhibition test, mixed human liver microsomes. It counts as in vitro ADME. The settings on record: 0.05-50 μM.
Data set [1] in a line: Pharmacokinetic experiment in mice. It counts as in vivo, ICR mice. The protocol: 3.1 Experimental animals: male ICR mice, about 22 g, 6-8 weeks old, 18 mice/compound, purchased from Hunan SJA Laboratory Animal Co., Ltd.
3.2 Experimental design: On the day of the experiment, 18 ICR mice were randomly grouped according to their body weight. The animals were fasted with water available for 12 to 14 h one day before the administration, and were fed 4 h after the administration.
(§1) Vehicle for intravenous administration: 5% DMA+5% Solutol+90% Saline; Vehicle for intragastric administration: 0.5% MC
Before and after the administration, 0.08 mL of blood was taken from the orbit of the animals under isoflurane anaesthesia and placed in an EDTAK2 centrifuge tube. The blood was centrifuged at 5000 rpm and 4° C. for 10 min to collect plasma. Blood sampling time points for the intravenous administration group: 0, 5 min, 15 min, 30 min, 1 h, 2 h, 4 h, 6 h, 8 h, and 24 h; and blood sampling time points for the intragastric administration group: 0, 5 min, 15 min, 30 min, 1 h, 2 h, 4 h, 6 h, 8 h, and 24 h. Before analysis and detection, all samples were stored at −80° C.

Data set [2] can be described thus: Pharmacokinetic experiment in rats. In kind it is in vivo, SD rats. The protocol: 2.1 Experimental animals: Male SD rats, about 220 g, 6-8 weeks old, 6 rats/compound, purchased from Hunan SJA Laboratory Animal Co., Ltd.
2.2 Experimental design: On the day of the experiment, 6 SD rats were randomly grouped according to their body weight. The animals were fasted with water available for 12 to 14 h one day before the administration, and were fed 4 h after the administration.
as §1
Before and after the administration, 0.15 mL of blood was taken from the orbit of the animals under isoflurane anaesthesia and placed in an EDTAK2 centrifuge tube. The blood was centrifuged at 5000 rpm and 4° C. for 10 min to collect plasma. Blood sampling time points for the intravenous administration group: 0, 5 min, 15 min, 30 min, 1 h, 2 h, 4 h, 6 h, 8 h, and 24 h; and blood sampling time points for the intragastric administration group: 0, 5 min, 15 min, 30 min, 1 h, 2 h, 4 h, 6 h, 8 h, and 24 h. Before analysis and detection, all samples were stored at −80° C.

The next data set has as its target hKHK-C (Homo sapiens (Human), UniProt P50053). The data set is described as follows: Experiment of inhibitory activity against KHK in vitro (ADP-glo), hKHKc. It counts as biochemical. The settings on record: purified hKHK-C, 50 mM fructose, 0.2 mM ATP. As to the method:
(§2) With the involvement of ATP, fructokinase phosphorylates fructose to produce fructose-1-phosphate and ADP. In this experiment, the effect of the compound on the activity of fructokinase was determined by measuring the amount of ADP produced in the process. Test compound stocks were prepared in DMSO. Before use, the stocks were 3-fold serially diluted with assay buffers (25 mM HEPES, 300 mM KCl, 10 mM MgCl2, 10 mM CaCl2), pH 7.0) to 5-fold the final concentration tested, and the DMSO content was adjusted to 1%. In a 384-well plate, the test compound was added to achieve a final concentration of 7.6 nM to 100 μM (assay buffers containing 1% DMSO were added to background and control wells). 5 ng/μL purified hKHK-C (assay buffers were added to background wells), 50 mM fructose and 0.2 mM ATP were added to reach a total volume of 10 μL and reacted at room temperature for 30 min. After the reaction was completed, 10 μL of ADP-glo (promega) was added and mixed uniformly, and the plate was incubated at room temperature for 40 min. Then the ADP-glo was added again, mixed uniformly and reacted for 40 min. The spontaneous luminescence intensity was measured using an Envision microplate reader. The inhibition rate of the compound against […] was calculated using the following formula,
(§3) [formula] • wherein • RLUZPE=luminescence intensity of control well • RLUblank=luminescence intensity of background well • RLUcpd=luminescence intensity of test compound well
(§4) A curve of inhibition rate (y-axis) versus compound concentration (x-axis) was fitted by logarithmic (inhibitor) and normalized response (variable slope) in GraphPad Prism, and EC50 was calculated.
(In general: ADP-Glo turns the ADP formed in a reaction into a luminescent signal.)

Another data set concerns the target CYP2D6 (Homo sapiens (Human), UniProt P10635). The data set is described as follows: CYP450 enzyme inhibition test, mixed human liver microsomes. The settings on record: 0.05-50 μM. In kind it is in vitro ADME. On the technique in general: Microsomes from liver hold many membrane-bound enzymes, among them those of drug oxidation.
In the next data set the target is hKHKa (Homo sapiens (Human), UniProt P50053). The data set is described as follows: Experiment of inhibitory activity against KHK in vitro (ADP-glo), hKHKa. In kind it is biochemical. The protocol:
[The source words this procedure for another variant and reports this variant under the same test.] as §2, §3, §4

For the next data set, the target named is rKHKc (Rattus norvegicus (Rat), UniProt Q02974). The experiment in a line: Experiment of inhibitory activity against KHK in vitro (ADP-glo), rKHKc. In kind it is biochemical. As to the method:
[The source words this procedure for another species and reports this species under the same test.] as §2, with “5 ng/μL purified hKHK-C (assay buffers were added to background wells), 50 mM fructose and 0.2 mM ATP were added to reach a total volume of 10 μL and reacted at room temperature for 30 min. After the reaction was completed, 10 μL of ADP-glo (promega) was added and mixed uniformly, and the plate was incubated at room temperature for 40 min. Then the ADP-glo was added again, mixed uniformly and reacted for 40 min.” left out
as §3, §4

A further data set concerns the target mKHKc (Mus musculus (Mouse), UniProt P97328). The experiment in a line: Experiment of inhibitory activity against KHK in vitro (ADP-glo), mKHKc. In kind it is biochemical. The protocol:
[The source words this procedure for another species and reports this species under the same test.] as §2, with “5 ng/μL purified hKHK-C (assay buffers were added to background wells), 50 mM fructose and 0.2 mM ATP were added to reach a total volume of 10 μL and reacted at room temperature for 30 min. After the reaction was completed, 10 μL of ADP-glo (promega) was added and mixed uniformly, and the plate was incubated at room temperature for 40 min. Then the ADP-glo was added again, mixed uniformly and reacted for 40 min.” left out
as §3, §4

Sequence of hKHKa (P50053 other isoform, or with tags, fused parts or gaps): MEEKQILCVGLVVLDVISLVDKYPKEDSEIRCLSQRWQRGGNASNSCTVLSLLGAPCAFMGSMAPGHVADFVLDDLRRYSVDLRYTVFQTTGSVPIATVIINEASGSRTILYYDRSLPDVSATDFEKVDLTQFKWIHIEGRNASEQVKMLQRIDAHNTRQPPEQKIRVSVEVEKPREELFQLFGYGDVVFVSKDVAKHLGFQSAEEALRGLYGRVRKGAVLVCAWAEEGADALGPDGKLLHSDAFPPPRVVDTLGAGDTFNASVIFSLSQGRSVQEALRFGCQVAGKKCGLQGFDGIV
Sequence of hKHK-C (P50053 whole entry): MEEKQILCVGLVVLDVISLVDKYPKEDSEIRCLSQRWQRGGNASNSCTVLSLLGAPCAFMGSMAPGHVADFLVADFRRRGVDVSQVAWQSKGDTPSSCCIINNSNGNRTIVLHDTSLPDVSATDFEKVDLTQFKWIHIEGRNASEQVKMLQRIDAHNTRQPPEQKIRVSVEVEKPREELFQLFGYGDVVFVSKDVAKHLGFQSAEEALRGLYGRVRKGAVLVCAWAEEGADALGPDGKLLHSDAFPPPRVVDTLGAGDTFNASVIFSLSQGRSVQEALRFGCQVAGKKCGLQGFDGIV
Sequence of rKHKc (Q02974 whole entry): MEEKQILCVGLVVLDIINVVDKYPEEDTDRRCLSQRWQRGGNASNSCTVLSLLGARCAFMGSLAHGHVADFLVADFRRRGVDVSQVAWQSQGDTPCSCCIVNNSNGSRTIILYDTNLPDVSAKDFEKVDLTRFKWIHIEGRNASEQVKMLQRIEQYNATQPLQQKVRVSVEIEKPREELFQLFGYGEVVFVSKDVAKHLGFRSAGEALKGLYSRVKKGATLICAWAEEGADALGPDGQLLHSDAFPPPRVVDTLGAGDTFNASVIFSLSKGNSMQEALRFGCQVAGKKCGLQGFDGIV
Sequence of CYP3A4 (P08684 whole entry): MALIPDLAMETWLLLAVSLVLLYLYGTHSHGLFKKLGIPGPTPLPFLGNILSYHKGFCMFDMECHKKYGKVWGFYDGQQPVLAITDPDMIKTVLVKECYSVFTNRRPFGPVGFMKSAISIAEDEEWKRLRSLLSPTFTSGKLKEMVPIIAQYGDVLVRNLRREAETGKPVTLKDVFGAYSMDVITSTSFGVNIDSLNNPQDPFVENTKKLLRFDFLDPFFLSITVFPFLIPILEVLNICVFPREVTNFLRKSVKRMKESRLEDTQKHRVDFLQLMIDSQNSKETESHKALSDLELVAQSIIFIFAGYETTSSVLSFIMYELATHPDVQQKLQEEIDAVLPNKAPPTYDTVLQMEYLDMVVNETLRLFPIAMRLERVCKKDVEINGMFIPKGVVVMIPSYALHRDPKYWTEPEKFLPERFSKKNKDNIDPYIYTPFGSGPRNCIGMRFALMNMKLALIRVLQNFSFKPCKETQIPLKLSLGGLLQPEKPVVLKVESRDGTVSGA
Sequence of mKHKc (P97328 whole entry): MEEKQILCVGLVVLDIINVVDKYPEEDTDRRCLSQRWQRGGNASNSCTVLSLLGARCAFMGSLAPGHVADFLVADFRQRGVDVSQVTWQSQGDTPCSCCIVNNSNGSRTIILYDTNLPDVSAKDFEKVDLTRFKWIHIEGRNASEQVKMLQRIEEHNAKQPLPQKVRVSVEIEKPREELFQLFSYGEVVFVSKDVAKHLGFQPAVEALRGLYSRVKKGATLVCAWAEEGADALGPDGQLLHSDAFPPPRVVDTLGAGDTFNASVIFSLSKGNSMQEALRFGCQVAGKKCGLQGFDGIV
Sequence of CYP2D6 (P10635 whole entry): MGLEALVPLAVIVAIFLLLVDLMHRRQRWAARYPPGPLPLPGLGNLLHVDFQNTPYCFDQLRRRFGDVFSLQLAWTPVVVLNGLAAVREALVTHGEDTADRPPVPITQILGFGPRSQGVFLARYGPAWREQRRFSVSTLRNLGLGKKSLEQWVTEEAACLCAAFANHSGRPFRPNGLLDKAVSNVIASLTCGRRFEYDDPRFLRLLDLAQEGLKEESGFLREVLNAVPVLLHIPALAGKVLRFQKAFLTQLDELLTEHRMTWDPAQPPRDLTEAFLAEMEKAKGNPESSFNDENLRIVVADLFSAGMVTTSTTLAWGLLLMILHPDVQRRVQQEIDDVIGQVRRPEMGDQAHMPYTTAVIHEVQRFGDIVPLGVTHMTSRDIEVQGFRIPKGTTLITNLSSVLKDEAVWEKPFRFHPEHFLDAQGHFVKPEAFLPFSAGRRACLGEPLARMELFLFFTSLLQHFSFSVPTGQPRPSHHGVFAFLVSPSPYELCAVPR

The term IC50 denotes the midpoint of a concentration-inhibition curve. The term Vdss denotes the apparent volume that relates the amount in the body to the concentration in plasma or blood. Low values mean confinement near the circulation, high ones extensive tissue distribution. A word on the EC50: it is the concentration needed to bring the measured effect to its halfway point. High values mean a need for much substance, low ones an effect from little substance. For the compound “2-((1R,5S,6S)-3-(7,7-difluoro-2-((S)-2-(trifluoromethyl)azetidin-1-yl)-6,7-dihydro-5H-cyclopenta[d]pyrimidin-4-yl)-3-azabicyclo[3.1.1]heptan-6-yl)acetic acid [Isomer 2 of compound 20]”, the IC50 at CYP3A4 and on CYP2D6 was above 50000 nM in each case. The F in data set [1] (i.g. 3 mg/kg) stood at 87.2%; in data set [2] (i.g. 5 mg/kg), 111%. Further, the AUC0-t came to 4807 ng·h/mL in data set [1] (plasma, i.g. 3 mg/kg); 1838 ng·h/mL in data set [1] (plasma, i.v. 1 mg/kg); 64058 ng·h/mL in data set [2] (plasma, i.g. 5 mg/kg); 11592 ng·h/mL in data set [2] (plasma, i.v. 1 mg/kg). The CL in data set [1] (plasma, i.v. 1 mg/kg) amounted to 8.84 mL/min/kg; in data set [2] (plasma, i.v. 1 mg/kg), 1.35 mL/min/kg. For the same compound, the Vdss in data set [1] (plasma, i.v. 1 mg/kg) turned out to be 0.977 L/kg; in data set [2] (plasma, i.v. 1 mg/kg), 0.568 L/kg. In addition, on hKHK-C, the midpoint of the response, the EC50, lay at 49.8 nM.
Take `C[C@H]1CCN1c1nc(N2CCC(CC(=O)O)C2)c2c(c1C#N)C(F)(F)CC2` (single isomer, unassigned) [Isomer 1 of compound 8]: the EC50 on hKHK-C was found to be 58.6 nM; on hKHKa, 59.7 nM.
In the case of `C[C@H]1CCN1c1nc(N2C[C@H]3C[C@@H](C2)[C@@H]3CC(=O)O)c2c(n1)C(F)(F)CCC2` (single isomer, unassigned; isomer 2) [Isomer 2 of compound 3], the EC50 was found to be 146 nM at rKHKc, 37.4 nM at hKHK-C, 51.8 nM on hKHKa and 134 nM on mKHKc.
For `C[C@H]1CCN1c1nc(N2C[C@H]3C[C@@H](C2)[C@@H]3CC(=O)O)c2c(n1)C(F)(F)CC2` (single isomer, unassigned; isomer 2) [Isomer 2 of compound 4], the EC50 on hKHK-C stood at 19.4 nM.
The compound `O=C(O)C[C@H]1[C@@H]2C[C@H]1CN(c1nc(N3CC[C@H]3C(F)F)nc3c1CCC3(F)F)C2` (single isomer, unassigned; isomer 2) [Isomer 2 of compound 19] showed an EC50 on hKHK-C of 60.6 nM.
Regarding `C[C@H]1CCN1c1nc(N2CC(CC(=O)O)C2)c2c(c1C#N)C(F)(F)CC2` [Compound 7, (S)-2-(1-(4-cyano-5,5-difluoro-3-(2-methylazetidin-1-yl)-6,7-dihydro-5H-cyclopenta[c]pyridin-1-yl)azetidin-3-yl)acetic acid], the EC50 on hKHK-C worked out at 36.5 nM; at hKHKa it was 35.2 nM.
As for `[2H]C([2H])([2H])[C@H]1CCN1c1nc(N2C[C@H]3C[C@@H](C2)C3CC(=O)O)c2c(n1)C(F)(F)CC2` (stereo partly drawn) [Compound 16, 2-((1R,5S,6R)-3-(7,7-difluoro-2-((S)-2-(methyl-d3)azetidin-1-yl)-6,7-dihydro-5H-cyclopenta[d]pyrimidin-4-yl)-3-azabicyclo[3.1.1]heptan-6-yl)acetic acid], the EC50 on hKHK-C turned out to be 37.7 nM.
Regarding `[2H]C([2H])([2H])[C@H]1CCN1c1nc(N2CC(CC(=O)O)C2)c2c(c1C#N)C(F)(F)CC2` [Compound 18, (S)-2-(1-(4-cyano-5,5-difluoro-3-(2-(methyl-d3)azetidin-1-yl)-6,7-dihydro-5H-cyclopenta[c]pyridin-1-yl)azetidin-3-yl)acetic acid], a half-maximal response on hKHK-C (EC50) required 52.7 nM.
